Laboratory results reported in ChEMBL document CHEMBL5365480, “Potent and selective carbonic anhydrase inhibition activities of pyrazolones bearing benzenesulfonamides” (Bioorg Med Chem Lett, 2023).

Key:
Carbonic anhydrase 12 = Carbonic anhydrase 12 (Homo sapiens, UniProt O43570); test: Inhibition of human CA XII assessed as inhibition constant by stopped-flow CO2 hydrase assay method
Carbonic anhydrase 9 = Carbonic anhydrase 9 (Homo sapiens, UniProt Q16790); test: Inhibition of human CA IX assessed as inhibition constant by stopped-flow CO2 hydrase assay method
Carbonic anhydrase 2 = Carbonic anhydrase 2 (Homo sapiens, UniProt P00918); test: Inhibition of human CA II assessed as inhibition constant by stopped-flow CO2 hydrase assay method
Carbonic anhydrase 1 = Carbonic anhydrase 1 (Homo sapiens, UniProt P00915); test: Inhibition of human CA I assessed as inhibition constant by stopped-flow CO2 hydrase assay method
Chain of Carbonic anhydrase 1 (P00915 whole entry): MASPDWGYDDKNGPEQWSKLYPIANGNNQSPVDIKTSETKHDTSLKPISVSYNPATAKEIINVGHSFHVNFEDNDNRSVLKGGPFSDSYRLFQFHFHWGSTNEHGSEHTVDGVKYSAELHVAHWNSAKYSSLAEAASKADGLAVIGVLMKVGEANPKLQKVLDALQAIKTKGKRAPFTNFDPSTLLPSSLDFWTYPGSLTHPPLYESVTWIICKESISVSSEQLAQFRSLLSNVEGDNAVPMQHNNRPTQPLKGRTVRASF

Chain of Carbonic anhydrase 12 (O43570 whole entry): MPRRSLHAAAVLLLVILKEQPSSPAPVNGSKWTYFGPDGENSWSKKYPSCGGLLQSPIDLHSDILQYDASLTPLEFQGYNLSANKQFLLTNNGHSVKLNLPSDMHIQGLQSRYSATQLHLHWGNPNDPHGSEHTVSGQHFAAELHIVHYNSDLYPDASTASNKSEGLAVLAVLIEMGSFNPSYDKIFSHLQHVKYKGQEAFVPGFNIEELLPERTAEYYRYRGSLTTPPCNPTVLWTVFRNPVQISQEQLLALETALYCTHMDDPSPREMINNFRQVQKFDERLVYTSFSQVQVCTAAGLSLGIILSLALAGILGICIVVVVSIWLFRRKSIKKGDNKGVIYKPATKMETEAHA

**Q.** How did the Ki (Carbonic anhydrase 12) turn out when `CC1=NN(c2ccc(C#N)cc2)C(=O)/C1=N/Nc1cccc(S(N)(=O)=O)c1` was run?
**A.** 3.9 nM

**Q.** What about the Ki (Carbonic anhydrase 9) of the same compound?
**A.** 60.7 nM

**Q.** And the Ki (Carbonic anhydrase 2)?
**A.** 0.5 nM

**Q.** And the Ki (Carbonic anhydrase 1)?
**A.** 495 nM

**Q.** What does the source list for `CC1=NN(c2ccc(Cl)cc2)C(=O)/C1=N/Nc1cccc(S(N)(=O)=O)c1`?
**A.** Ki (Carbonic anhydrase 12): 90.6 nM; Ki (Carbonic anhydrase 9): 40.2 nM; Ki (Carbonic anhydrase 2): 327 nM; Ki (Carbonic anhydrase 1): 7800 nM

**Q.** `CC1=NN(c2ccc(C)cc2)C(=O)/C1=N/Nc1cccc(S(N)(=O)=O)c1` was tested. Which Ki (Carbonic anhydrase 12) did it give?
**A.** 40.6 nM

**Q.** What about the Ki (Carbonic anhydrase 9) of the same compound?
**A.** 44.9 nM

**Q.** And the Ki (Carbonic anhydrase 2)?
**A.** 186 nM

**Q.** What about the Ki (Carbonic anhydrase 1) of the same compound?
**A.** 376 nM

**Q.** For `CC1=NN(c2ccc(Cl)cc2Cl)C(=O)/C1=N/Nc1ccc(S(N)(=O)=O)cc1`, which Ki (Carbonic anhydrase 12) is on record?
**A.** 6.7 nM

**Q.** What about the Ki (Carbonic anhydrase 9) of the same compound?
**A.** 8.5 nM

**Q.** What about the Ki (Carbonic anhydrase 2) of the same compound?
**A.** 72 nM

**Q.** What about the Ki (Carbonic anhydrase 1) of the same compound?
**A.** 5270 nM

**Q.** For `CC1=NN(c2ccccc2Cl)C(=O)/C1=N/Nc1cccc(S(N)(=O)=O)c1`, which Ki (Carbonic anhydrase 12) is on record?
**A.** 123 nM

**Q.** And the Ki (Carbonic anhydrase 9)?
**A.** 70.7 nM

**Q.** And the Ki (Carbonic anhydrase 2)?
**A.** 290 nM

**Q.** And the Ki (Carbonic anhydrase 1)?
**A.** 9080 nM

**Q.** What does the source list for `CC1=NN(c2ccc(C)cc2)C(=O)/C1=N/Nc1ccc(S(N)(=O)=O)cc1`?
**A.** Ki (Carbonic anhydrase 12): 66.1 nM; Ki (Carbonic anhydrase 9): 25.1 nM; Ki (Carbonic anhydrase 2): 6.1 nM; Ki (Carbonic anhydrase 1): 337 nM

**Q.** What does the source list for `CC1=NN(c2ccccc2)C(=O)/C1=N/Nc1cccc(S(N)(=O)=O)c1`?
**A.** Ki (Carbonic anhydrase 12): 53.5 nM; Ki (Carbonic anhydrase 9): 15 nM; Ki (Carbonic anhydrase 2): 6.6 nM; Ki (Carbonic anhydrase 1): 8310 nM

**Q.** How did the Ki (Carbonic anhydrase 12) turn out when `CC1=NN(c2ccc(Cl)cc2Cl)C(=O)/C1=N/Nc1cccc(S(N)(=O)=O)c1` was run?
**A.** 273 nM

**Q.** And the Ki (Carbonic anhydrase 9)?
**A.** 158 nM

**Q.** And the Ki (Carbonic anhydrase 2)?
**A.** 473 nM

**Q.** What about the Ki (Carbonic anhydrase 1) of the same compound?
**A.** 53200 nM

**Q.** `CC1=NN(c2ccccc2Cl)C(=O)/C1=N/Nc1ccc(S(N)(=O)=O)cc1` was tested. Which Ki (Carbonic anhydrase 12) did it give?
**A.** 73.7 nM

**Q.** And the Ki (Carbonic anhydrase 9)?
**A.** 31.2 nM

**Q.** And the Ki (Carbonic anhydrase 2)?
**A.** 77.6 nM

**Q.** And the Ki (Carbonic anhydrase 1)?
**A.** 7420 nM

**Q.** What does the source list for `CC1=NNC(=O)/C1=N/Nc1cccc(S(N)(=O)=O)c1`?
**A.** Ki (Carbonic anhydrase 12): 87.2 nM; Ki (Carbonic anhydrase 9): 22.9 nM; Ki (Carbonic anhydrase 2): 139 nM; Ki (Carbonic anhydrase 1): 217 nM

**Q.** Which Ki (Carbonic anhydrase 12) does the source give for `CC1=NN(c2ccc(Cl)cc2)C(=O)/C1=N/Nc1ccc(S(N)(=O)=O)cc1` here?
**A.** 24.6 nM

**Q.** And the Ki (Carbonic anhydrase 9)?
**A.** 1.1 nM

**Q.** And the Ki (Carbonic anhydrase 2)?
**A.** 21.1 nM

**Q.** What about the Ki (Carbonic anhydrase 1) of the same compound?
**A.** 8640 nM

**Q.** Which results are given for `CC1=NNC(=O)/C1=N/Nc1ccc(S(N)(=O)=O)cc1`?
**A.** Ki (Carbonic anhydrase 12): 161 nM; Ki (Carbonic anhydrase 9): 36.2 nM; Ki (Carbonic anhydrase 2): 2.5 nM; Ki (Carbonic anhydrase 1): 53.1 nM

**Q.** Which Ki (Carbonic anhydrase 12) does the source give for `CC1=NN(c2ccccc2)C(=O)/C1=N/Nc1ccc(S(N)(=O)=O)cc1` here?
**A.** 48.8 nM

**Q.** What about the Ki (Carbonic anhydrase 9) of the same compound?
**A.** 8.7 nM

**Q.** And the Ki (Carbonic anhydrase 1)?
**A.** 712 nM

**Q.** Which results are given for `CC1=NN(c2ccc(C#N)cc2)C(=O)/C1=N/Nc1ccc(S(N)(=O)=O)cc1`?
**A.** Ki (Carbonic anhydrase 12): 9.2 nM; Ki (Carbonic anhydrase 9): 3.2 nM; Ki (Carbonic anhydrase 2): 59 nM; Ki (Carbonic anhydrase 1): 504 nM
